Measurements: ChEMBL document CHEMBL1201862, “PubChem BioAssay data set” (2004)
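Results reflect a 48-hour exposure of cells in 96-well plates to compound at five concentrations. At the GI50, growth is halved.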 Calls of active or inactive are those of the source. Rule as the data show it: active = GI50 up to about 1.1 µM and inactive = higher.

What was measured:
Experiment in all cases: NCI tumour cell line growth inhibition, 48 h
786-0 = tested on: 786-0
A549 = tested on: A549
ACHN = tested on: ACHN
CAKI-1 = tested on: CAKI-1
COLO 205 = tested on: COLO 205
EKVX = tested on: EKVX
M14 = tested on: M14
MCF7 = tested on: MCF7
NCI-H460 = tested on: NCI-H460
OVCAR-4 = tested on: OVCAR-4
OVCAR-8 = tested on: OVCAR-8
SF-295 = tested on: SF-295
SK-MEL-5 = tested on: SK-MEL-5
SNB-19 = tested on: SNB-19
UACC-257 = tested on: UACC-257
UACC-62 = tested on: UACC-62
HCC 2998 = tested on: HCC 2998
NCI/ADR-RES = tested on: NCI/ADR-RES
RXF 393 = tested on: RXF 393

Measured: GI50

CCn1c2ccccc2c2cc(/N=N\c3ccc(C#N)cc3)ccc21
inactive: 786-0 29 µM | A549 26.9 µM | ACHN > 100 µM | CAKI-1 20.4 µM | COLO 205 74.5 µM | EKVX 33.3 µM | M14 25.9 µM | MCF7 4.41 µM | NCI-H460 64.7 µM | OVCAR-4 98.6 µM | OVCAR-8 39.3 µM | SF-295 32.1 µM | SK-MEL-5 50.7 µM | SNB-19 19.4 µM | UACC-257 58.9 µM | UACC-62 61.4 µM

Oc1ccccc1/C=N/N1C(=S)N(C23CC4CC(CC(C4)C2)C3)C(=N\c2ccccc2)/C1=N/c1ccccc1
inactive: 786-0 > 100 µM | A549 > 100 µM | ACHN 50 µM | CAKI-1 > 100 µM | COLO 205 94.4 µM | EKVX > 100 µM | HCC 2998 > 100 µM | M14 > 100 µM | NCI-H460 71.8 µM | NCI/ADR-RES > 100 µM | OVCAR-8 > 100 µM | RXF 393 82.8 µM | SF-295 > 100 µM | SK-MEL-5 23.4 µM | SNB-19 77.4 µM | UACC-257 > 100 µM | UACC-62 > 100 µM

Nc1ccn(C2CC3OCC3O2)c(=O)n1 (stereo not drawn)
inactive: 786-0 > 100 µM | A549 > 100 µM | ACHN > 100 µM | CAKI-1 > 100 µM | COLO 205 > 100 µM | EKVX > 100 µM | M14 > 100 µM | MCF7 > 100 µM | NCI-H460 > 100 µM | NCI/ADR-RES > 100 µM | OVCAR-4 > 100 µM | OVCAR-8 > 100 µM | SF-295 > 100 µM | SK-MEL-5 > 100 µM | SNB-19 > 100 µM | UACC-257 > 100 µM | UACC-62 > 100 µM

CN/N=C(/CC(=O)c1sc(-n2nc(-c3ccccc3)cc2-c2ccccc2)nc1C)C(=O)Nc1ccc(Cl)c(Cl)c1
active: EKVX 0.787 µM
inactive: 786-0 39.3 µM | A549 37.9 µM | ACHN 25.1 µM | CAKI-1 14.7 µM | COLO 205 28.9 µM | HCC 2998 44.3 µM | NCI-H460 57.3 µM | OVCAR-4 52.6 µM | OVCAR-8 51.1 µM | RXF 393 26.2 µM | SF-295 25.3 µM | SK-MEL-5 18 µM | SNB-19 > 100 µM | UACC-257 30.6 µM | UACC-62 26.5 µM

CCOC(=O)C(=[N+]=[N-])C(=O)C[N+]12CCN(CC1)CC2
inactive: 786-0 > 100 µM | A549 > 100 µM | ACHN > 100 µM | CAKI-1 > 100 µM | COLO 205 > 100 µM | HCC 2998 > 100 µM | M14 > 100 µM | NCI-H460 > 100 µM | NCI/ADR-RES > 100 µM | OVCAR-4 > 100 µM | OVCAR-8 > 100 µM | RXF 393 > 100 µM | SF-295 > 100 µM | SK-MEL-5 > 100 µM | SNB-19 > 100 µM | UACC-257 > 100 µM | UACC-62 > 100 µM

O=c1[nH]c2nc(S)nc(S)c2[nH]1
inactive: 786-0 > 100 µM | A549 > 100 µM | ACHN > 100 µM | CAKI-1 > 100 µM | EKVX > 100 µM | HCC 2998 > 100 µM | M14 > 100 µM | NCI-H460 > 100 µM | NCI/ADR-RES > 100 µM | OVCAR-4 > 100 µM | OVCAR-8 > 100 µM | RXF 393 > 100 µM | SF-295 > 100 µM | SK-MEL-5 > 100 µM | SNB-19 > 100 µM | UACC-257 > 100 µM | UACC-62 > 100 µM

CC12CCC(C)(c3cc(O)c(O)cc31)c1cc(O)c(O)cc12
inactive: 786-0 14.7 µM | A549 29.6 µM | ACHN 16.1 µM | CAKI-1 11.2 µM | COLO 205 16.5 µM | EKVX 25.1 µM | HCC 2998 17.5 µM | M14 17.2 µM | NCI-H460 18 µM | OVCAR-4 14.6 µM | OVCAR-8 19.7 µM | RXF 393 16.1 µM | SF-295 22 µM | SK-MEL-5 17.7 µM | SNB-19 15.5 µM | UACC-257 15.3 µM | UACC-62 17.3 µM

Cn1cc(C2(C)CC(C)(C)c3c2n(C)c2ccccc32)c2ccccc21 (stereo not drawn)
inactive: 786-0 > 100 µM | A549 > 100 µM | CAKI-1 > 100 µM | COLO 205 > 100 µM | EKVX > 100 µM | HCC 2998 52.4 µM | M14 > 100 µM | NCI-H460 > 100 µM | OVCAR-8 > 100 µM | RXF 393 32.5 µM | SF-295 > 100 µM | SK-MEL-5 69.3 µM | SNB-19 > 100 µM | UACC-257 > 100 µM | UACC-62 > 100 µM

NNC(=S)NCCNC(=S)NN
inactive: 786-0 > 100 µM | A549 > 100 µM | ACHN > 100 µM | CAKI-1 > 100 µM | COLO 205 > 100 µM | EKVX > 100 µM | HCC 2998 > 100 µM | M14 > 100 µM | NCI-H460 > 100 µM | OVCAR-4 > 100 µM | SF-295 > 100 µM | SK-MEL-5 > 100 µM | SNB-19 > 100 µM | UACC-257 > 100 µM | UACC-62 > 100 µM

CC1(c2ccc(Cl)cc2)c2ccccc2C(=O)N1CCCN1C(=O)c2ccccc2C1=O (stereo not drawn)
inactive: 786-0 26.2 µM | A549 24.7 µM | ACHN 29.6 µM | CAKI-1 86.3 µM | COLO 205 18.5 µM | EKVX 3.36 µM | NCI/ADR-RES 19.9 µM | OVCAR-4 61.8 µM | OVCAR-8 26.7 µM | RXF 393 29.4 µM | SF-295 24.2 µM | SK-MEL-5 16.4 µM | SNB-19 18.3 µM | UACC-257 51.8 µM | UACC-62 30.1 µM

CC(C)OP(=O)(c1ccccc1)c1ccc2c(c1)OCCOCCOCCOCCO2 (stereo not drawn)
inactive: 786-0 > 100 µM | A549 > 100 µM | ACHN > 100 µM | COLO 205 > 100 µM | EKVX > 100 µM | HCC 2998 > 100 µM | MCF7 > 100 µM | NCI-H460 > 100 µM | OVCAR-8 > 100 µM | SF-295 > 100 µM | SK-MEL-5 > 100 µM | SNB-19 > 100 µM | UACC-257 > 100 µM | UACC-62 > 100 µM

CCOP(=O)(CC1OC(CO)C(O)C1O)OCC (stereo not drawn)
inactive: 786-0 > 100 µM | A549 > 100 µM | ACHN > 100 µM | CAKI-1 > 100 µM | COLO 205 > 100 µM | EKVX > 100 µM | HCC 2998 > 100 µM | M14 > 100 µM | MCF7 > 100 µM | NCI-H460 > 100 µM | OVCAR-4 > 100 µM | RXF 393 > 100 µM | SF-295 > 100 µM | SK-MEL-5 > 100 µM | SNB-19 > 100 µM | UACC-257 > 100 µM | UACC-62 > 100 µM

CC(=O)c1c2c(cc3c1CC1(Cc4cc5c(cc4C1=O)CCC5)C3)CCC2 (stereo not drawn)
inactive: 786-0 > 54.5 µM | A549 42.2 µM | ACHN > 68.7 µM | CAKI-1 17.3 µM | COLO 205 64.6 µM | EKVX 36.1 µM | HCC 2998 72.9 µM | M14 > 68.1 µM | MCF7 35.7 µM | NCI-H460 42.6 µM | NCI/ADR-RES 22.5 µM | OVCAR-4 38.5 µM | OVCAR-8 71.9 µM | SF-295 42.5 µM | SK-MEL-5 12.1 µM | SNB-19 > 100 µM | UACC-257 13.2 µM | UACC-62 > 100 µM

O=C1CCC2(c3ccc(Cl)cc3)Nc3ncncc3N12 (stereo not drawn)
inactive: 786-0 > 10 µM | A549 > 10 µM | ACHN > 10 µM | EKVX > 10 µM | HCC 2998 > 10 µM | M14 > 10 µM | MCF7 > 10 µM | NCI-H460 > 10 µM | NCI/ADR-RES > 10 µM | OVCAR-4 > 10 µM | OVCAR-8 > 10 µM | SF-295 > 10 µM | SNB-19 > 10 µM | UACC-257 > 10 µM | UACC-62 > 10 µM

C=C1C(=O)OC2C1CC[C@H](C)C1(O)C(O)CC(=O)[C@@]21C (stereo partly drawn)
inactive: 786-0 24.2 µM | A549 31 µM | ACHN 19.5 µM | CAKI-1 27.7 µM | COLO 205 16.3 µM | EKVX 19.5 µM | HCC 2998 24 µM | NCI-H460 36.5 µM | OVCAR-8 17.4 µM | RXF 393 > 10 µM | SF-295 24.8 µM | SK-MEL-5 16.7 µM | SNB-19 52 µM | UACC-257 14.4 µM | UACC-62 12.7 µM

Oc1ccc(-c2c3c(nc4c2CCc2ccc(Br)cc2-4)-c2cc(Br)ccc2CC3)cc1
inactive: 786-0 18.9 µM | A549 19.8 µM | ACHN 20.7 µM | CAKI-1 17.7 µM | COLO 205 17.2 µM | EKVX 22 µM | HCC 2998 20.7 µM | M14 23.9 µM | MCF7 16.8 µM | NCI-H460 22.5 µM | NCI/ADR-RES 23 µM | OVCAR-4 22.3 µM | SF-295 16.2 µM | SK-MEL-5 20.7 µM | SNB-19 23.6 µM | UACC-257 27 µM | UACC-62 21.3 µM

O=C1/C(=C/c2ccc(Cl)cc2)NC(=S)N1CN1CCOCC1
inactive: 786-0 > 100 µM | A549 > 100 µM | ACHN > 100 µM | COLO 205 > 100 µM | EKVX > 100 µM | M14 > 100 µM | MCF7 > 100 µM | NCI/ADR-RES > 100 µM | OVCAR-4 > 100 µM | OVCAR-8 > 100 µM | SF-295 > 100 µM | SK-MEL-5 > 100 µM | SNB-19 > 100 µM | UACC-257 > 100 µM | UACC-62 > 100 µM
